Measured values from patent US9375002B2, “5-aminopyrimidine derivatives and use thereof for combating undesired plant growth” (BAYER INTELLECTUAL PROPERTY GMBH, priority 2012, dated 2016).

Experiments:
[1] = logp (HCOOH), physicochemical characterization; conditions: for chromatographic logP: HCOOH (formic acid)
Alopecurus myosuroides = assay: Pre-emergence herbicidal effect; format: in vivo; conditions: 1280 g/ha, visual assessment after 3 weeks
Excerpt: (§1) 1. Pre-Emergence Herbicidal Effect and Crop Plant Compatibility Seeds of monocotyledonous and dicotyledonous weed plants and crop plants are placed in wood-fiber pots in sandy loam and covered with soil. The inventive compounds, formulated in the form of wettable powders (WP) or as emulsion concentrates (EC), are then applied to the surface of the covering soil as an aqueous suspension or emulsion at a water application rate of 600 to 800 I/ha (converted) with addition of 0.2% wetting agent. After the treatment, the pots are placed in a greenhouse and kept under good growth conditions for the test plants. The damage to the test plants is assessed visually after a test period of 3 weeks by comparison with untreated controls (herbicidal activity in percent (%): 100% action=the plants have died, 0% action=like control plants). ABUTH: Abutilon theophrasti ALOMY: Alopecurus myosuroides

Amaranthus retroflexus [2] = assay: Pre-emergence herbicidal effect; format: in vivo; conditions: 1280 g/ha, visual assessment after 3 weeks
Excerpt: as §1, with “AMARE: Amaranthus retroflexus ECHCG: Echinochloa crus-galli” for “ABUTH: Abutilon theophrasti ALOMY: Alopecurus myosuroides”

Lolium multiflorum = assay: Pre-emergence herbicidal effect; format: in vivo; conditions: 1280 g/ha, visual assessment after 3 weeks
Excerpt: as §1, with “LOLMU: Lolium multiflorum MATIN: Matricaria inodora” for “ABUTH: Abutilon theophrasti ALOMY: Alopecurus myosuroides”

Matricaria inodora = assay: Pre-emergence herbicidal effect; format: in vivo; conditions: 1280 g/ha, visual assessment after 3 weeks
Excerpt: as §1, with “LOLMU: Lolium multiflorum MATIN: Matricaria inodora” for “ABUTH: Abutilon theophrasti ALOMY: Alopecurus myosuroides”

Stellaria media = assay: Pre-emergence herbicidal effect; format: in vivo; conditions: 1280 g/ha, visual assessment after 3 weeks
Excerpt: as §1, with “STEME: Stellaria media VERPE: Veronica persica” for “ABUTH: Abutilon theophrasti ALOMY: Alopecurus myosuroides”

Veronica persica [3] = assay: Pre-emergence herbicidal effect; format: in vivo; conditions: 1280 g/ha, visual assessment after 3 weeks
Excerpt: as §1, with “STEME: Stellaria media VERPE: Veronica persica” for “ABUTH: Abutilon theophrasti ALOMY: Alopecurus myosuroides”

Viola tricolor = assay: Pre-emergence herbicidal effect; format: in vivo; conditions: 1280 g/ha, visual assessment after 3 weeks
Excerpt: as §1, with “VIOTR: Viola tricolor” for “ABUTH: Abutilon theophrasti ALOMY: Alopecurus myosuroides”

Echinochloa crus-galli = assay: Pre-emergence herbicidal effect; format: in vivo; conditions: 1280 g/ha, visual assessment after 3 weeks
Excerpt: as §1, with “AMARE: Amaranthus retroflexus ECHCG: Echinochloa crus-galli” for “ABUTH: Abutilon theophrasti ALOMY: Alopecurus myosuroides”

Polygonum convolvulus [4] = assay: Pre-emergence herbicidal effect; format: in vivo; conditions: 1280 g/ha, visual assessment after 3 weeks
Excerpt: as §1, with “POLCO: Polygonum convolvulus SETVI: Setaria viridis” for “ABUTH: Abutilon theophrasti ALOMY: Alopecurus myosuroides”

Setaria viridis = assay: Pre-emergence herbicidal effect; format: in vivo; conditions: 1280 g/ha, visual assessment after 3 weeks
Excerpt: as §1, with “POLCO: Polygonum convolvulus SETVI: Setaria viridis” for “ABUTH: Abutilon theophrasti ALOMY: Alopecurus myosuroides”

Amaranthus retroflexus [5] = assay: Post-emergence herbicidal effect; format: in vivo; conditions: 1280 g/ha, visual rating after about 3 weeks
Procedure: (§2) AMARE: Amaranthus retroflexus ECHCG: Echinochloa crus-galli 2. Post-Emergence Herbicidal Effect and Crop Plant Compatibility Seeds of monocotyledonous and dicotyledonous weed and crop plants are placed in sandy loam in wood-fiber pots, covered with soil and cultivated in a greenhouse under good growth conditions. 2 to 3 weeks after sowing, the test plants are treated at the one-leaf stage. The compounds according to the invention, formulated in the form of wettable powders (WP) or as emulsion concentrates (EC), are then sprayed as aqueous suspension or emulsion at a water application rate of 600 to 800 I/ha (converted) with the addition of 0.2% of wetting agent onto the green parts of the plants. After the test plants have been kept in the greenhouse under optimum growth conditions for about 3 weeks, the activity of the preparations is rated visually in comparison to untreated controls (herbicidal activity in percent (%): 100% activity=the plants have died, 0% activity=like control plants).

Abutilon theophrasti = assay: Post-emergence herbicidal effect; format: in vivo; conditions: 1280 g/ha, visual rating after about 3 weeks
Procedure: as §2, with “ABUTH: Abutilon theophrasti ALOMY: Alopecurus myosuroides” for “AMARE: Amaranthus retroflexus ECHCG: Echinochloa crus-galli”

Polygonum convolvulus [6] = assay: Post-emergence herbicidal effect; format: in vivo; conditions: 1280 g/ha, visual rating after about 3 weeks
Procedure: as §2, with “POLCO: Polygonum convolvulus SETVI: Setaria viridis” for “AMARE: Amaranthus retroflexus ECHCG: Echinochloa crus-galli”

Veronica persica [7] = assay: Post-emergence herbicidal effect; format: in vivo; conditions: 1280 g/ha, visual rating after about 3 weeks
Procedure: as §2, with “STEME: Stellaria media VERPE: Veronica persica” for “AMARE: Amaranthus retroflexus ECHCG: Echinochloa crus-galli”

In the case of `Cc1ccc2c(c1)[C@H](Nc1cnc(S(C)(=O)=O)nc1C#N)[C@@H](C)C2` [compound 108], the “logp (HCOOH)” value [1] is reported as “solid; logp (HCOOH): 3.29; 1H-NMR (CDCl3, 400 MHZ, δ in ppm): 1.25 (d, 3H, CH3);”.

With `Cc1ccc2c(c1)[C@H](Nc1cnc(S(C)(=O)=O)nc1C(=O)NC1CC1)[C@@H](C)C2` [compound 139] the “herbicidal activity ALOMY” value (Alopecurus myosuroides) was 90%, the “herbicidal activity AMARE” value (Amaranthus retroflexus [2]) was 100% and the “herbicidal activity LOLMU” value (Lolium multiflorum) was 100%. For the same compound, the “herbicidal activity MATIN” value (Matricaria inodora) was 100%, the “herbicidal activity STEME” value (Stellaria media) was 100% and the “herbicidal activity VERPE” value (Veronica persica [3]) was 100%. The “herbicidal activity VIOTR” value (Viola tricolor) was 100%.

With `Cc1cc(C)c2c(c1)C(Nc1cnc(S(C)(=O)=O)nc1)CCO2` (racemic) [compound 62] the “logp (HCOOH)” value [1] was “wax-like; logp (HCOOH): 4.06; 1H-NMR (CDCl3, 400 MHZ, δ in ppm): 2.10-2.35 (m,”.

In the case of `Cc1ccc2c(c1)[C@H](Nc1cnc(S(C)(=O)=O)nc1C(N)=O)[C@@H](C)C2` [compound 93, 5-{[(1R,2S)-2,6-Dimethyl-2,3-dihydro-1H-inden-1-yl]amino}-2-(methylsulfonyl)pyrimidine-4-carboxamide], the “herbicidal activity ALOMY” value (Alopecurus myosuroides) is reported as 90%, the “herbicidal activity AMARE” value (Amaranthus retroflexus [2]) is reported as 100% and the “herbicidal activity ECHCG” value (Echinochloa crus-galli) is reported as 100%. The “herbicidal activity LOLMU” value (Lolium multiflorum) was 90%, the “herbicidal activity MATIN” value (Matricaria inodora) was 100% and the “herbicidal activity POLCO” value (Polygonum convolvulus [4]) was 100%. For the same compound, the “herbicidal activity SETVI” value (Setaria viridis) was 90%, the “herbicidal activity STEME” value (Stellaria media) was 100% and the “herbicidal activity VERPE” value (Veronica persica [3]) was 100%. The “herbicidal activity VIOTR” value (Viola tricolor) was 100%, the “herbicidal activity AMARE” value (Amaranthus retroflexus [5]) was 80% and the “herbicidal activity ABUTH” value (Abutilon theophrasti) was 80%. For the same compound, the chromatographic logP [1] was 2.21.

For `CCc1ccc2c(c1)C(Nc1cnc(C(F)(F)F)nc1)CCO2` (racemic) [compound 70], the “logp (HCOOH)” value [1] was “wax-like; logp (HCOOH): 3.41; 1H-NMR (CDCl3, 400 MHZ, δ in ppm): 1.15 (t, 3H,”.

With `CCc1ccc2c(c1)C(Nc1cnc(C#N)nc1)CCO2` (centres unmarked) [Ex. 64, 5-[(6-Ethyl-3,4-dihydro-2H-chromen-4-yl)amino]pyrimidine-2-carbonitrile] the chromatographic logP [1] was 2.8.

With `Cc1ccc2c(c1)[C@H](Nc1cnc(C#N)nc1)[C@@H](C)C2` [compound 76] the “logp (HCOOH)” value [1] was “wax-like; logp (HCOOH): 3.17; 1H-NMR (CDCl3, 400 MHZ, δ in ppm): 1.25 (d, 3H,”.

`FC(F)(F)c1ncc(N[C@@H]2CCc3ccccc32)cn1` [Ex. 115, N-[(1R)-2,3-Dihydro-1H-inden-1-yl]-2-(trifluoromethyl)pyrimidine-5-amine] showed a chromatographic logP [1] of 3.05 and a melting point of 123.7 °C.

With `CS(=O)(=O)c1ncc(N[C@@H]2CCCc3ccccc32)c(C(N)=O)n1` [compound 87] the “logp (HCOOH)” value [1] was “wax-like; logp (HCOOH): 1.86; 1H-NMR (CDCl3, 400 MHZ, δ in ppm): 1.85 (m, 2H, 2H”.

With `CS(=O)(=O)c1ncc(N[C@@H]2CCc3ccccc32)cn1` [compound 131] the “herbicidal activity ECHCG” value (Echinochloa crus-galli) was 100%, the “herbicidal activity MATIN” value (Matricaria inodora) was 100% and the “herbicidal activity POLCO” value (Polygonum convolvulus [4]) was 100%. The “herbicidal activity SETVI” value (Setaria viridis) was 90%, the “herbicidal activity STEME” value (Stellaria media) was 100% and the “herbicidal activity VERPE” value (Veronica persica [3]) was 100%. For the same compound, the “herbicidal activity AMARE” value (Amaranthus retroflexus [5]) was 80%, the “herbicidal activity POLCO” value (Polygonum convolvulus [6]) was 80% and the “herbicidal activity VERPE” value (Veronica persica [7]) was 80%.

For `CCc1ccc2c(c1)C(Nc1cnc(S(C)(=O)=O)nc1C#N)CCO2` (racemic) [compound 66], the “herbicidal activity AMARE” value (Amaranthus retroflexus [2]) was 100%, the “herbicidal activity MATIN” value (Matricaria inodora) was 90% and the “herbicidal activity POLCO” value (Polygonum convolvulus [4]) was 90%. The “herbicidal activity STEME” value (Stellaria media) was 100%, the “herbicidal activity VERPE” value (Veronica persica [3]) was 100% and the “herbicidal activity VIOTR” value (Viola tricolor) was 100%. For the same compound, the “logp (HCOOH)” value [1] was “wax-like; logp (HCOOH): 2.54; 1H-NMR (CDCl3, 400 MHZ, δ in ppm): 1.15 (t, 3H,”.
